Drawing on ChEMBL document CHEMBL1811863, “New 5-deoxyflavonoids and their inhibitory effects on protein tyrosine phosphatase 1B (PTP1B) activity” (Bioorg Med Chem, 2011), this text covers IC50 for twelve compounds.

A value given as a limit tells only on which side of the number the result lay.

This assay deals with T1, Tyrosine-protein phosphatase non-receptor type 1 (Homo sapiens, UniProt P18031).
T1 sequence (P18031 whole entry): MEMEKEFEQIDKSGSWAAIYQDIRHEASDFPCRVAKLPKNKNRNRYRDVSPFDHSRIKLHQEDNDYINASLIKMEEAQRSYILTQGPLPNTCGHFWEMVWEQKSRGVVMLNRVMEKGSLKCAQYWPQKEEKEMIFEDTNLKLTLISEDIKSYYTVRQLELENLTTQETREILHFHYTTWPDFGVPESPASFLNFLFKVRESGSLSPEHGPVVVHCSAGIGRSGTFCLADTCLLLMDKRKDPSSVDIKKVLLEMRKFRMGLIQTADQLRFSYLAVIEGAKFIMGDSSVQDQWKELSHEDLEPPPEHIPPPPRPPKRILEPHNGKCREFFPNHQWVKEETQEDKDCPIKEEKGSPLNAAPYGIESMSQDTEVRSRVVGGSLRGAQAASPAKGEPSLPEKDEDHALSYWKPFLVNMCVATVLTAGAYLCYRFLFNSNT
Nature of the assay: Inhibition of human recombinant PTP1B assessed as p-nitorphenol production after 30 mins.

Regarding `COc1cc(O)c([C@]2(O)COc3cc(O)ccc3C2=O)cc1CC=C(C)C` [ERYTHRIBYSSIN J], the concentration for half-maximal inhibition (IC50) turned out to be 14.9 µM.

For `COc1ccc(C2CC(=O)c3ccc(O)cc3O2)cc1CC=C(C)C` (configuration not stated), the half-maximal inhibitory concentration (IC50) is 16.5 µM.

With `CC(C)=CCc1cc([C@@H]2CC(=O)c3ccc(O)cc3O2)cc2c1OC(C)(C)C(O)C2` (some centres not stated) [ERYTHRIBYSSIN G], the half-maximal inhibitory concentration (IC50) came out at 35.8 µM.

Consider `O=Cc1cc([C@@H]2CC(=O)c3ccc(O)cc3O2)ccc1O` [ERYTHRIBYSSIN K], for which the IC50 was > 100 µM.

As for `CC1(C)Oc2ccc([C@@H]3CC(=O)c4ccc(O)cc4O3)cc2CC1O` (some centres not stated) [ERYTHRIBYSSIN I], the IC50 was > 100 µM.

In the case of `COc1cc(OC)c([C@H]2COc3cc(O)ccc3C2=O)cc1CC=C(C)C` [ERYTHRIBYSSIN E], the half-inhibitory concentration (IC50) was determined as 15.2 µM.

For `COc1cc([C@@H]2CC(=O)c3ccc(O)cc3O2)ccc1O`, the half-maximal inhibitory concentration (IC50) stood at 98.1 µM.

On to `COc1cc(O)c(C2COc3cc(O)ccc3C2=O)cc1CC=C(C)C` (configuration not stated) [PROSTRATOL C], for which the half-inhibitory concentration (IC50) came to 17.2 µM.

As for `O=C1C[C@@H](c2ccc(O)cc2)Oc2cc(O)ccc21` [LIQUIRTIGENIN], the IC50 was > 100 µM.

Turning to `CC(C)=CCc1cc([C@@H]2CC(=O)c3ccc(O)cc3O2)cc2c1OC(C)(C)C=C2` [ABYSSINONES III], the half-maximal inhibitory concentration (IC50) was determined as 72.9 µM.

Take `CC(C)=CCc1cc([C@@H]2CC(=O)c3ccc(O)cc3O2)ccc1O` [ABYSSINONE II]: the IC50 came out at 29.2 µM.

Regarding `CC(C)=CCc1cc([C@@H]2CC(=O)c3c(O)cc(O)cc3O2)cc(CC=C(C)C)c1O` [ABYSSINONE V], the IC50 was 22.6 µM.
